{"source": "EPA's ToxValDB 9.5 (doi:10.2903/j.efsa.2006.68r)", "key": {"[1]": {"tested_on": "Typhlodromus pyri", "assay": "LR50; higher = less toxic", "settings": "not reported; mortality"}, "[2]": {"tested_on": "Aphidius rhopalosiphi", "assay": "LR50; higher = less toxic", "settings": "not reported; mortality"}, "[3]": {"tested_on": "Daphnia magna", "settings": "chronic/long-term; duration: 21 days"}, "[4]": {"tested_on": "Pontoscolex corethrurus"}, "[5]": {"tested_on": "Colinus virginianus"}, "[6]": {"tested_on": "Apis mellifera", "settings": "acute, mortality"}, "[7]": {"tested_on": "Rattus norvegicus", "settings": "for NOAEL: neurology"}, "[8]": {"tested_on": "Oncorhynchus mykiss"}, "[9]": {"tested_on": "Bibionidae", "settings": "chronic/long-term; duration: 28 days"}, "[10]": {"tested_on": "Oryctolagus sp.", "settings": "reproduction developmental; clinical signs"}}}
{"smiles": "CCOP(=O)(SC(C)CC)SC(C)CC", "note": "(configuration not stated) [Cadusafos]", "values": [{"measurement": "LR50", "setting": "[1]", "value": 44.4, "unit": "g/ha"}, {"measurement": "LR50", "setting": "[2]", "value": 3.75, "unit": "g/ha"}, {"measurement": "NOEC", "setting": "[3]", "value": 0.231, "unit": "mg/L"}, {"measurement": "LC50", "setting": "[4]; acute, mortality", "value": 12.5, "unit": "mg/kg"}, {"measurement": "NOEC", "setting": "[4]; chronic/long-term, reproduction", "value": 1.8, "unit": "mg/kg"}, {"measurement": "LC50", "setting": "[5]; acute, oral, diet, mortality", "value": 10.8, "unit": "mg/kg-day"}, {"measurement": "LD50", "setting": "[5]; acute, oral, mortality", "value": 16.1, "unit": "mg/kg-day"}, {"measurement": "NOEL", "setting": "[5]; reproduction developmental", "value": "≥ 1.1", "unit": "mg/kg-day"}, {"measurement": "LD50", "setting": "[6]; dermal", "value": 1.8, "unit": "µg/piece"}, {"measurement": "LD50", "setting": "[6]; oral, unspecified", "value": 2.07, "unit": "µg/piece"}, {"measurement": "LD50", "setting": "[7]; acute, oral, mortality", "value": 37.1, "unit": "mg/kg"}, {"measurement": "NOAEL", "setting": "[7]; chronic, duration: 2 years, F", "value": 0.045, "unit": "mg/kg-day"}, {"measurement": "NOAEL", "setting": "[7]; subchronic, duration: 90 days, oral, diet", "value": 0.067, "unit": "mg/kg-day"}, {"measurement": "LC50", "setting": "[8]; acute, duration: 96 hours, mortality", "value": 130, "unit": "mg/L"}, {"measurement": "NOEC", "setting": "[8]; chronic/long-term, duration: 95 days", "value": 5.22, "unit": "mg/L"}, {"measurement": "NOEC", "setting": "[9]", "value": 32, "unit": "µg/kg"}, {"measurement": "NOAEL", "setting": "[10]", "value": 0.3, "unit": "mg/kg-day"}]}
